According to US20240398772A1, “OXASPIRO DERIVATIVE, AND PREPARATION METHOD THEREFOR AND USE THEREOF” (SHUJING BIOPHARMA CO., LTD, priority 2021, published 2024):

Experiments:
[1] = target: T1, MOR beta-arrestin (Homo sapiens, UniProt P35372); experiment: MOR beta-arrestin agonist test (PathHunter, U2OS/OPRM1 cell line); type: cell-based; settings: Human Mu opioid β-arrestin U2OS/OPRM1 cell line; for Emax: maximal effect of DAMGO is 100%, read-out: Emax for activating beta-arrestin signaling pathway; for EC50: read-out: EC50 for activating beta-arrestin signaling pathway
T1 construct: expressed in transfected cells; host or cells: MOR beta-arrestin cell strain (U2OS/OPRM1 PathHunter per the earlier reading), kept under Hygromycin B and G418 selection
T1 sequence (P35372 whole entry): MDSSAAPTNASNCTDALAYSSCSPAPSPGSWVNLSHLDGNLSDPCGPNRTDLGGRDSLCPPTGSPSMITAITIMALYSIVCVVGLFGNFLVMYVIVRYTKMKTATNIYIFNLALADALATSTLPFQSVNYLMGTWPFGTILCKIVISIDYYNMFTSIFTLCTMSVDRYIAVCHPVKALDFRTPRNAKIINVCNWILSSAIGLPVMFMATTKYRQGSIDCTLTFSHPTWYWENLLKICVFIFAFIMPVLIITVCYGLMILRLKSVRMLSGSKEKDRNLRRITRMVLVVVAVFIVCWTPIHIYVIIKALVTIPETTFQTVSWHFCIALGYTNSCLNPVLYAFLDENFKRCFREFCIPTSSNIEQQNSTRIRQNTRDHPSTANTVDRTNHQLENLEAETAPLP
Method: • Cell complete medium: MEM+10% FBS+1% PS+250 μg/mL Hygromycin B+500 μg/mL G418 +1×GlutaMAX • Cell inoculation medium: MEM+10% FBS+1% PS • Experimental buffer: 1×DPBS+0.1% BSA • Detection reagent: Galacton Star:Emerald II:PathHunter cell assay buffer=1:5:19
• i) Compound samples were dissolved in DMSO to a stock concentration of 10 mM; • ii) A sample dilution sequence on a 384-well LDV plate was prepared, wherein the first concentration point of the sample was 10 mM (FAC=30 μM), and the sample was serially diluted 3.162-fold to obtain a total of 11 concentration points; • iii) The sample dilution sequence and HPE and ZPE were transferred to a compound plate (PE #6008590) using an Echo machine, with each well 90 nL transferred.
• i) The MOR beta-arrestin cell strain was cultured in a cell complete medium at 37° C. with 5% CO2 to a confluence of 70-90%; • ii) the cells were digested and resuspended in the cell inoculation medium, and 20 μL of the MOR beta-arrestin cell suspension was added to each well of an assay plate (Corning #3570) at 7500 cells/well and incubated in an incubator at 37° C. with 5% CO2 for 24 h; • iii) 30 μL of an experimental buffer was added to a compound plate (PE #6008590), and the plate was centrifuged at 1000 rpm for 5 min; • iv) after 24 h, the assay plate was taken out, the medium was removed from the plate, and then 20 μL of the compound was transferred from each corresponding well of the compound plate to the assay plate with Bravo; • v) the assay plate was centrifuged at 500 rpm for 30 s and then placed into an incubator for incubation at 37° C. with 5% CO2 for 90 min; • vi) 10 μL of the beta-arrestin detection reagent was added to each well of the assay plate; • vii) after 1 h of incubation at room temperature in the dark, the plate was read on Envision.
The experimental data of the percent activation rate and concentrations of 11 points were fitted using XLFit to a parameter nonlinear logic
Use formula to calculate the EC50 value of the compound, and the results are shown in Table 7 (maximal effect of DAMGO is 100%).

[2] = target: T2, MOR (Homo sapiens, UniProt P35372); experiment: Agonist test on MOR, cAMP level (CHO-K1/OP3 cells, cAMP assay kit); type: cell-based; settings: for EC50: forskolin-stimulated cAMP, read-out: EC50 agonizing MOR receptor to affect cAMP level; for Emax: maximal effect of DAMGO is 100%, read-out: Emax agonizing MOR receptor to affect cAMP level
T2 construct: expressed in transfected cells; host or cells: CHO-K1/OP3 (name from the earlier reading)
T2 sequence (P35372 whole entry): as above
Method: 5×stimulation buffer was diluted to 1× with ddH2O, an appropriate amount of 500 mM IBMX (generally, the IBMX stock solution was prepared to be 500 mM, namely 1000×) was added to enable the final concentration of the IBMX to be 0.5 mM, and the mixture was mixed well for later use (after the IBMX was added, that precipitation occurred was normal, and the precipitate was dissolved by well mixing). It must be prepared right before use.
1.3.1.2 IBMX was dissolved with DMSO to prepare a 500 mM stock solution, which was aliquoted into 20 μL/tube and cryopreserved at −80° C. to avoid repetition of freezing and thawing.
1.3.1.3 Forskolin was dissolved with DMSO to prepare a 10 mM stock solution, which was aliquoted into 20 μL/tube and cryopreserved at −20° C. for later use.
The CAMP standard substance in the kit returned to room temperature, and an equivalent amount of the experimental buffer was added according to the volume marked on the bottle label. The mixture was vortexed for mixing, aliquoted according to 50 μL/tube, and cryopreserved at −20° C. for later use.
5 mL ddH2O was added to a bottle of cAMP-d2 and a bottle of anti-cAMP-cryptate lyophilized powder, respectively, and the mixture was mixed well by gently turning the mixture upside down, aliquoted according to 125, 62.5, and 30 μL, and the like, and cryopreserved in the dark at −80° C.
1.3.2.1 Positive compound DAMGO and the test compound were serially diluted 4-fold to obtain 10 concentrations with Bravo using experimental buffer in a compound plate (Greiner-781280) at a starting concentration of 2 μM (from DMSO stock solution diluted with experimental buffer) and 20 μM (from DMSO stock solution diluted with experimental buffer), respectively.
1.3.2.2 Cells cryopreserved were thawed in a water bath at 37° C., the cell suspension was added to a centrifuge tube containing 10 mL of HBSS buffer, and the mixture was centrifuged at 750 rpm for 5 min. The supernatant was discarded, the pellet was resuspended in an appropriate amount of experimental buffer, and 20 μL of the pellet was counted using a cell counter. An appropriate amount of the cell suspension was diluted to 0.4×10^6 cells/mL, and 5 μL of the cell suspension was added to each well of a cell plate (the cell density was 2000 cells/well) and centrifuged at 1000 rpm for 1 min. 5 μL of the diluted compound was transferred to a cell plate (PerkinElmer-6008280) with Bravo, 5 μL of 2 μM DAMGO (the final concentration was 1 μM) was transferred to positive control wells, and an equal volume of experimental buffer was transferred to negative control wells, and the cell plate was centrifuged at 1000 rpm for 1 min. The cell plate was sealed and incubated at room temperature for 15 min. Forskolin was diluted to 0.2 mM with DMSO, 25.1 nL of which was transferred to a cell plate with Tecan-D300e, and the plate was centrifuged at 1000 rpm for 1 min, sealed, and incubated at room temperature for 45 min.
The final concentration of the initial point was 712 nM.
1.3.2.4 Preparation of detection reagent: an appropriate amount of a cAMP-d2 stock solution and an anti-cAMP-cryptate stock solution was diluted with a lysis buffer according to the ratio of 1:20, the two solutions were then mixed well by turning the solutions upside down according to the ratio of 1:1, and vortexing was prohibited. 10 μL of the prepared detection reagent was added to a cell plate and centrifuged at 1000 rpm for 1 min. The cell plate was incubated at room temperature for 1 h in the dark. After the cell plate was centrifuged at 1000 rpm for 1 min, the plate was read using Envision. Excitation light at 340 nm, emission light at 620 nm and 665 nm.
The formula for calculating the compound activation rate in the agonist test: […]

[3] = system: pain threshold of a mouse; experiment: Mouse thermal radiation tail-flick method; type: in vivo, ICR mice; settings: for Maximum analgesic percentage (% MPE): ICR mice, intragastric 10 mg/kg, Mean ± SEM, n = 9-10
Method: • Intragastric administration at a dose of 10 mg/kg;
ICR mice (normal grade, weighed 25-35 g, purchased from Shanghai Slac Laboratory Animal Co., Ltd.) were first mounted in a special plastic cylinder, their tails were exposed and allowed to droop naturally, and the measurements were made after the animals were calm. The radiation heat source could be an 8.75 mm projection lamp (32 W, adjustable). A light beam with the diameter of about 4 mm was emitted after being focused by a lens, which irradiated the skin at the junction of the middle third and the lower third of the tail (the light source and the skin at the tail must be closely attached); an electronic timer connected with the light source in parallel was used to synchronously record the irradiation duration, that is, when the irradiation started, a stopwatch was automatically started at the same time. When the tail of the animal obviously evaded, the timing was automatically stopped. The measured time interval was the tail flick latency. Mice with tail flick latency of 2-6 seconds were screened to participate in a grouping administration experiment. […] After a dose of a drug was administered to the mice, the pain threshold of the mice was measured at different times.
After a dose of a drug was administered to the mice, the pain threshold of the mice was measured at 0.5 h, 1 h, 2 h, and 3 h (effect view of the analgesic effect is shown in FIG. 1). The formula for calculating the maximum analgesic percentage (% MPE) after administration was as follows: % MPE=(post-administration pain threshold−pre-administration pain threshold)/(15−pre-administration pain threshold)×100%.

| SMILES | Emax [1] | EC50 [1] | EC50 [2] | Emax [2] | Maximum analgesic percentage (% MPE) ([3]; 0.5 h after administration) | Maximum analgesic percentage (% MPE) ([3]; 1 h after administration) | Maximum analgesic percentage (% MPE) ([3]; 2 h after administration) | Maximum analgesic percentage (% MPE) ([3]; 3 h after administration) | Maintenance of the analgesic effect compared with oxycodone ([3]; mouse tail flick, 0.5-3 h after administration) | Drug effect compared with oxycodone ([3]; mouse tail flick, same dose (10 mg/kg intragastric)) |
| --- | --- | --- | --- | --- | --- | --- | --- | --- | --- | --- |
| Fc1ccc(C2(CCNC3Cc4ccccc4C3)CCOC3(CCOCC3)C2)nc1 (stereo not drawn) [Compound 8, N-(2-(4-(5-fluoropyridin-2-yl)-1,9-dioxaspiro[5.5]undecan-4-yl)ethyl)-2,3-dihydro-1H-inden-2-amine] | 2.1% | 364 nM | 8.62 nM | 72% | – | – | – | – | – | – |
| Fc1ccc([C@]2(CCNC3Cc4ccccc4C3)CCOC3(CCOCC3)C2)nc1 [Compound 8-1, (R)—N-(2-(4-(5-fluoropyridin-2-yl)-1,9-dioxaspiro[5.5]undecan-4-yl)ethyl)-2,3-dihydro-1H-inden-2-amine] | 3% | > 30000 nM | 4.1 nM | 92.8% | 80.64 ± 9.27 % | 85.69 ± 5.95 % | 69.94 ± 10.43 % | 87.16 ± 6.80 % | maintained for a longer period of time | better drug effect than oxycodone |
| Fc1ccc(C2(CCNC3Cc4cccc(Br)c4C3)CCOC3(CCOCC3)C2)nc1 (stereo not drawn) [Compound 10, 4-bromo-N-(2-(4-(5-fluoropyridin-2-yl)-1,9-dioxaspiro[5.5]undecan-4-yl)ethyl)-2,3-dihydro-1H-inden-2-amine] | 4.5% | 4800 nM | 2.79 nM | 80.9% | – | – | – | – | – | – |
| Cc1c(Cl)cccc1CNCCC1(c2ccc(F)cn2)CCOC2(CCOCC2)C1 (stereo not drawn) [Compound 12, N-(3-chloro-2-methylbenzyl)-2-(4-(5-fluoropyridin-2-yl)-1,9-dioxaspiro[5.5]undecan-4-yl)ethan-1-amine] | 6.3% | > 30000 nM | 7.63 nM | 89.8% | – | – | – | – | – | – |
| Fc1ccc([C@]2(CCNCc3cccc(Cl)c3Cl)CCOC3(CCOCC3)C2)nc1 [Compound 13-1, (R)—N-(2,3-dichlorobenzyl)-2-(4-(5-fluoropyridin-2-yl)-1,9-dioxaspiro[5.5]undecan-4-yl)ethan-1-amine] | 4.2% | > 30000 nM | 18.7 nM | 78.6% | – | – | – | – | – | – |
| c1ccc(C2(CCNC3CCc4ccccc43)CCOC3(CCOCC3)C2)nc1 (stereo not drawn) [Compound 15, N-(2-(4-(pyridin-2-yl)-1,9-dioxaspiro[5.5]undecan-4-yl)ethyl)-2,3-dihydro-1H-inden-1-amine] | 7.2% | 1780 nM | 30.7 nM | 96.9% | – | – | – | – | – | – |
